In experiment [1] the test system is E. coli RNase P RNA, M1 RNA. Put plainly: Inhibition of bacterial RNase P activity, IC50 determination (cleavage of pATSerUG by M1 RNA). The format is biochemical. The conditions noted are these: NI: No inhibition.
Experiment [2] concerns Escherichia coli (ATCC25922). Put plainly: MIC, broth microdilution (CLSI), Escherichia coli. The conditions noted are these: Escherichia coli, ATCC25922, read-out: E. coli ATCC 25922 MIC, Table XIII.
Experiment [3] concerns Staphylococcus aureus (ATCC25923). Put plainly: MIC, broth microdilution (CLSI), Staphylococcus aureus ATCC25923. As to conditions: Staphylococcus aureus, ATCC25923, read-out: S. aureus ATCC 25923 MIC. Background: Dilution methods test growth across graded concentrations, often in twofold steps.

Where a name gives a salt, the structure may show the parent alone. Where only a bound is given, the exact number is not on record here.

By IC50 is commonly meant the point on the concentration scale where inhibition reaches its midpoint. The MIC is the smallest concentration in the dilution series that meets the test's criterion for growth inhibition. The compound `Cc1cccc(C(CC(=O)N(C)C2CCNCC2)c2cn(CC3CCCCC3)c3ccc(Br)cc23)c1.Cl` (stereo not drawn) [Compound 278, 3-(5-bromo-1-(cyclohexylmethyl)-1H-indol-3-yl)-N-methyl-N-(piperidin-4-yl)-3-(m-tolyl)propanamide hydrochloride salt] returned an IC50 in experiment [1] of 15 µM. Further, the MIC was above 512 µg/mL in experiment [2] and 2 µg/mL in experiment [3].

`N[C@H]1CC[C@H](CN2CCC(c3cn(CC4CCCCC4)c4ccccc34)CC2)CC1` [Compound 217, (1R,4R)-4-((4-(1-(cyclohexylmethyl)-1H-indol-3-yl)piperidin-1-yl)methyl)cyclohexan-1-amine hydrochloride salt] came in with an IC50 in experiment [1] of 133 µM. Besides, the MIC in experiment [2] is 31 µg/mL; in experiment [3] it was 8 µg/mL.

Consider `Cc1cccc(C(CC(=O)NC2CCC(N)CC2)c2cn(CC3CCCCC3)c3ccc(C#N)cc23)c1.Cl` [Compound 236, N-((1S,4S)-4-aminocyclohexyl)-3-(5-cyano-1-(cyclohexylmethyl)-1H-indol-3-yl)-3-(m-tolyl)propanamide hydrochloride salt], for which, in experiment [1], the IC50 stood at 20 µM. For the same compound, the MIC in experiment [2] worked out at 68 µg/mL; in experiment [3], 9 µg/mL.

On to `Cl.NC1CCC(NC(=O)Cc2cn(CC3CCCCC3)c3ccc(-c4ccccc4OC(F)(F)F)cc23)CC1` [Compound 234, N-((1S,4S)-4-aminocyclohexyl)-2-(1-(cyclohexylmethyl)-5-(2-(trifluoromethoxy)phenyl)-1H-indol-3-yl)acetamide hydrochloride salt], for which the IC50 in experiment [1] is 7 µM. Moreover, the values for the MIC in experiment [2] and in experiment [3] were 289 µg/mL and 9 µg/mL, respectively.

With `Cl.NC1CCC(C(=O)N2CCC(c3cn(CC4CCCCC4)c4ccccc34)CC2)CC1` (stereo not drawn) [Compound 200, (4-aminocyclohexyl) (4-(1-(cyclohexylmethyl)-1H-indol-3-yl)piperidin-1-yl)methanone hydrochloride salt], the 50% inhibitory concentration (IC50) in experiment [1] was 5.9 µM. For the same compound, the MIC in experiment [2] was determined as 59 µg/mL; in experiment [3] it was 15 µg/mL.

Turning to `COc1cccc(C(CC(=O)NC2CCC(N)CC2)c2cn(CC3CCCCC3)c3ccccc23)c1.Cl` [Compound 160, N-((1S,4S)-4-aminocyclohexyl)-3-(1-(cyclohexylmethyl)-1H-indol-3-yl)-3-(3-methoxyphenyl) propanamide hydrochloride salt], the IC50 in experiment [1] came out at 12 µM. Also, the MIC was determined as 67 µg/mL in experiment [2] and 17 µg/mL in experiment [3].

The compound `Cc1cccc(C(CC(=O)N[C@H]2CC[C@H](N)CC2)c2cn(Cc3ccccc3)c3ncccc23)c1.Cl` (stereo partly drawn) [Compound 71, N-((1R,4R)-4-aminocyclohexyl)-3-(1-benzyl-1H-pyrrolo[2,3-b]pyridin-3-yl)-3-(m-tolyl)propanamide hydrochloride salt] showed an IC50 in experiment [1] of 269 µM. In addition, the MIC is above 512 µg/mL in experiment [2] and 258 µg/mL in experiment [3].

Take `COc1ccc2c(c1)c(C(CC(=O)NC1CCC(N)CC1)c1cccc(C)c1)cn2CC1CCCCC1.Cl` [Compound 151, N-((1S,4S)-4-aminocyclohexyl)-3-(1-(cyclohexylmethyl)-5-methoxy-1H-indol-3-yl)-3-(m-tolyl)propanamide hydrochloride salt]: half-maximal inhibition in experiment [1] (IC50) required 45 µM. Also, the MIC came out at 128 µg/mL in experiment [2] and 16 µg/mL in experiment [3].

In turn, `Cc1cccc(C(CC(=O)NC2CCC(CN)CC2)c2cn(CC3CCCCC3)c3ccccc23)c1.Cl` (stereo not drawn) [Compound 182, N-((1r,4r)-4-(aminomethyl)cyclohexyl)-3-(1-(cyclohexylmethyl)-1H-indol-3-yl)-3-(m-tolyl)propanamide hydrochloride salt] registered an IC50 in experiment [1] of 17 µM. In addition, the MIC is above 512 µg/mL in experiment [2] and 17 µg/mL in experiment [3].

Regarding `Cc1cccc(-c2ccc3c(c2)c(CCC(=O)NC2CCC(N)CC2)cn3CC2CCCCC2)c1.Cl` (stereo not drawn) [Compound 144, N-((1s,4s)-4-aminocyclohexyl)-3-(1-(cyclohexylmethyl)-5-(m-tolyl)-1H-indol-3-yl)propanamide hydrochloride salt], in experiment [1], the IC50 stood at 7.5 µM. Besides, the MIC in experiment [2] amounted to 64 µg/mL; in experiment [3], 4 µg/mL.

As to `Cc1cccc(C(CC(=O)NC2CCC(N)CC2)c2cn(CC3CCCCC3)c3cc(Br)ccc23)c1` [Compound 222, N-((1S,4S)-4-aminocyclohexyl)-3-(6-bromo-1-(cyclohexylmethyl)-1H-indol-3-yl)-3-(m-tolyl)propanamide hydrochloride salt], the 50% inhibitory concentration (IC50) in experiment [1] (hydrochloride salt) turned out to be 5.7 µM. The MIC in experiment [2] and in experiment [3] was 5 µg/mL in each case.

Turning to `Cl.N[C@H]1CC[C@H](NC(=O)CC(c2cccnc2)c2cn(Cc3ccccc3)c3ccccc23)CC1` (stereo partly drawn) [Compound 99, N-((1R,4R)-4-aminocyclohexyl)-3-(1-benzyl-1H-indol-3-yl)-3-(pyridin-3-yl)propanamide hydrochloride salt], half-maximal inhibition in experiment [1] (IC50) was put at 18 µM. Further, the MIC in experiment [2] was above 512 µg/mL; in experiment [3], 256 µg/mL.

Regarding `Cl.N[C@H]1CC[C@H](NC(=O)CCc2cn(CC3CCCCC3)c3ccc(Br)cc23)CC1` [Compound 156, N-((1R,4R)-4-aminocyclohexyl)-3-(5-bromo-1-(cyclohexylmethyl)-1H-indol-3-yl)propanamide hydrochloride salt], the IC50 in experiment [1] is 16 µM. The figures for the MIC in experiment [2] and in experiment [3] were 32 µg/mL and 16 µg/mL, respectively.

Regarding `Cc1cccc(C(CC(=O)NCCC2CCNCC2)c2cn(Cc3ccccc3)c3ccccc23)c1.Cl` (stereo not drawn) [Compound 55, 3-(1-benzyl-1H-indol-3-yl)-N-(2-(piperidin-4-yl)ethyl)-3-(m-tolyl)propanamide hydrochloride salt], in experiment [1] (hydrochloride salt), the IC50 was determined as 172 µM. Further, the figures for the MIC in experiment [2] and in experiment [3] were 264 µg/mL and 66 µg/mL, respectively.

In experiment [1], `COc1ccccc1-c1ccc2c(c1)c(CCC(=O)N[C@H]1CC[C@H](N)CC1)cn2CC1CCCCC1.Cl` [Compound 230, N-((1R,4R)-4-aminocyclohexyl)-3-(1-(cyclohexylmethyl)-5-(2-methoxyphenyl)-1H-indol-3-yl)propanamide hydrochloride salt] gave an IC50 of 11 µM. The results for the MIC in experiment [2] and in experiment [3] were 67 µg/mL and 8 µg/mL, respectively.

`Cc1cccc(C(CC(=O)NC[C@H]2CC[C@H](CN)CC2)c2cn(CC3CCCCC3)c3ccccc23)c1.Cl` (stereo partly drawn) [Compound 166, N-(((1S,4S)-4-(aminomethyl)cyclohexyl)methyl)-3-(1-(cyclohexylmethyl)-1H-indol-3-yl)-3-(m-tolyl)propanamide hydrochloride salt]: half-maximal inhibition in experiment [1] (IC50) required 7 µM. For the same compound, the MIC in experiment [2] was 275 µg/mL; in experiment [3], 9 µg/mL.

`Cc1cccc(C(CC(=O)NC2CCC(N)CC2)c2cn(CC3CCCCC3)c3c(Br)cccc23)c1.Cl` [Compound 174, N-((1S,4S)-4-aminocyclohexyl)-3-(7-bromo-1-(cyclohexylmethyl)-1H-indol-3-yl)-3-(m-tolyl)propanamide hydrochloride salt]: in experiment [1], the IC50 was found to be 32 µM. The MIC in experiment [2] is above 512 µg/mL; in experiment [3] it was 150 µg/mL.

In experiment [1], `Cl.N[C@H]1CC[C@H](NC(=O)CCc2cn(Cc3ccccc3)c3ccccc23)CC1` [Compound 100, N-((1R,4R)-4-aminocyclohexyl)-3-(1-benzyl-1H-indol-3-yl)propanamide hydrochloride salt] had an IC50 of 486 µM. Besides, the results for the MIC in experiment [2] and in experiment [3] were above 512 µg/mL and 256 µg/mL, respectively.

`Cl.O=C(CCc1cn(CC2CCCCC2)c2ccccc12)NC1CCNCC1` [Compound 115, 3-(1-(cyclohexylmethyl)-1H-indol-3-yl)-N-(piperidin-4-yl)propanamide hydrochloride salt] returned an IC50 in experiment [1] of 145 µM. Further, the minimal inhibitory concentration (MIC) in experiment [2] and in experiment [3] was 128 µg/mL each time.

Consider `Cc1ccc(C(CC(=O)NC2CCC(N)CC2)c2cn(CC3CCCCC3)c3ccccc23)cc1.Cl` [Compound 140, N-((1S,4S)-4-aminocyclohexyl)-3-(1-(cyclohexylmethyl)-1H-indol-3-yl)-3-(p-tolyl)propanamide hydrochloride salt], for which the IC50 in experiment [1] amounted to 34 µM. The MIC is 64 µg/mL in experiment [2] and 8 µg/mL in experiment [3].

The compound `Cc1cccc(C(CC(=O)N[C@H]2CC[C@H](N)CC2)c2cn(CC3CCCCC3)c3ccccc23)c1.Cl` (stereo partly drawn) [Compound 104, N-((1R,4R)-4-aminocyclohexyl)-3-(1-(cyclohexylmethyl)-1H-indol-3-yl)-3-(m-tolyl)propanamide hydrochloride salt] showed an IC50 in experiment [1] of 16 µM. The MIC in experiment [2] is 64 µg/mL; in experiment [3], 8 µg/mL.

As for `Cc1cccc(C(CC(=O)NCC2CCC(CN)CC2)c2cn(CC3CCCCC3)c3ccc(Br)cc23)c1.Cl` (stereo not drawn) [Compound 203, N-((4-(aminomethyl)cyclohexyl)methyl)-3-(5-bromo-1-(cyclohexylmethyl)-1H-indol-3-yl)-3-(m-tolyl)propanamide hydrochloride salt], in experiment [1], the IC50 is 115 µM. For the same compound, the MIC is above 512 µg/mL in experiment [2] and 5 µg/mL in experiment [3].

For `Cc1cccc(C(CC(=O)NC2CCC(N)CC2)c2cn(CC3CCCCC3)c3ccc(-c4ccnn4C)cc23)c1.Cl` (stereo not drawn) [Compound 183, N-(4-aminocyclohexyl)-3-(1-(cyclohexylmethyl)-5-(1-methyl-1H-pyrazol-5-yl)-1H-indol-3-yl)-3-(m-tolyl)propanamide hydrochloride salt], the IC50 in experiment [1] turned out to be 17 µM. The MIC in experiment [2] worked out at 151 µg/mL; in experiment [3], 9 µg/mL.

Consider `Cl.N[C@H]1CC[C@H](NC(=O)CC(c2cccc(F)c2)c2cn(CC3CCCCC3)c3ccccc23)CC1` (stereo partly drawn) [Compound 137, N-((1R,4R)-4-aminocyclohexyl)-3-(1-(cyclohexylmethyl)-1H-indol-3-yl)-3-(3-fluorophenyl) propanamide hydrochloride salt], for which, in experiment [1], the IC50 is 43 µM. The results for the MIC in experiment [2] and in experiment [3] were 32 µg/mL and 8 µg/mL, respectively.

Source of the values: patent US20210246115A1 (Bioimics AB, priority 2017, published 2021).
